How the values were obtained:
Test in all cases: relative viability (nuclei count vs DMSO), 5 days (fraction); higher = more cells survive
[1] = compound: CC1=NN=C(O1)C2=NN=C(C=C2)N3CCC(CC3)OC4=C(C=CC(=C4)F)Cl + Cc1cc(Nc2cc(N3CCN(C)CC3)nc(Sc3ccc(NC(=O)C4CC4)cc3)n2)n[nH]1 [Tozasertib] (partner 0.1 µM)
Procedure, shortened: (§1)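 Nuclei were stained with Hoechst during a one-step fixation (final 0.05% Triton X-100, 1% formaldehyde, 1 ug/ml Hoechst) carried out 5 days after dosing, then counted on 4× images. The cells, lung cancer lines in 1536-well plates, had been dosed by pin tool the day after seeding with one drug alone or a fixed anchor-drug dose plus five library-drug doses (not always all listed) in √10 steps. Relative viability is the nuclei count in treated wells divided by that in vehicle wells, and each value is the median of duplicate plates.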

[2] = compound: CC(C)C[C@@H](C(=O)N[C@H](C(=O)OC1CCCC1)c1ccccc1)[C@H](O)C(=O)NO [Tosedostat] + C[C@@H](Oc1cc(-c2cnn(C3CCNCC3)c2)cnc1N)c1c(Cl)ccc(F)c1Cl [Crizotinib] (partner 1 µM)
Procedure, shortened: as §1

[3] = compound: CC1=NN=C(O1)C2=NN=C(C=C2)N3CCC(CC3)OC4=C(C=CC(=C4)F)Cl + CC(=O)Nc1cccc(-n2c(=O)n(C3CC3)c(=O)c3c(Nc4ccc(I)cc4F)n(C)c(=O)c(C)c32)c1 [Trametinib] (partner 0.02 µM)
Procedure, shortened: as §1

[4] = compound: CC1=NN=C(O1)C2=NN=C(C=C2)N3CCC(CC3)OC4=C(C=CC(=C4)F)Cl + Nc1ncn([C@H]2C[C@H](O)[C@@H](CO)O2)c(=O)n1 [Decitabine] (partner 2 µM)
Procedure, shortened: as §1

**Q.** With UMC-11 as the cell line, how does the relative viability ([1]; first compound 0.253 µM) read?
**A.** 0.181

**Q.** And the relative viability ([1]; first compound 0.8 µM)?
**A.** 0.184

**Q.** What about the relative viability ([1]; first compound 2.53 µM) of the same cell line?
**A.** 0.192

**Q.** What about the relative viability ([1]; first compound 8 µM) of the same cell line?
**A.** 0.169

**Q.** What about the relative viability ([2]; first compound 0.02 µM) of the same cell line?
**A.** 0.688

**Q.** And the relative viability ([2]; first compound 0.06325 µM)?
**A.** 0.648

**Q.** And the relative viability ([2]; first compound 0.2 µM)?
**A.** 0.6

**Q.** And the relative viability ([2]; first compound 0.6325 µM)?
**A.** 0.559

**Q.** And the relative viability ([2]; first compound 2 µM)?
**A.** 0.459

**Q.** And the relative viability ([3]; first compound 0.253 µM)?
**A.** 0.457

**Q.** And the relative viability ([3]; first compound 0.8 µM)?
**A.** 0.531

**Q.** What about the relative viability ([3]; first compound 2.53 µM) of the same cell line?
**A.** 0.33

**Q.** And the relative viability ([3]; first compound 8 µM)?
**A.** 0.43

**Q.** What about the relative viability ([4]; first compound 0.253 µM) of the same cell line?
**A.** 0.517

**Q.** What about the relative viability ([4]; first compound 0.8 µM) of the same cell line?
**A.** 0.517

**Q.** And the relative viability ([4]; first compound 2.53 µM)?
**A.** 0.507

**Q.** And the relative viability ([4]; first compound 8 µM)?
**A.** 0.466
